{"source": "patent US20090247520A1", "about": "“INHIBITORS OF ANTIGEN RECEPTOR-INDUCED NF-kappa B ACTIVATION” (The Burnham Institute for Medical Research, priority 2008, published 2009)", "key": {"[1]": {"test_system": "γ-TriDAP (NOD1 agonist) stimulated IL-8 production", "test": "IL-8 production by MCF7 cells stimulated with γ-TriDAP", "type": "cell-based", "conditions": "listed as CID-2858522", "text": "(§1) FIG. 1 is a flow chart of screening and counter-screenings for selective inhibitors of antigen-receptor induced NF-κB pathway. A total of 114,889 compounds were screened. From a screen of 53,280 commercially available compounds (left column), 519 hits were obtained, of which 248 reconfirmed using the same primary screening assay. […] From these 11 active compounds, one hit, CID-2858522, inhibited PMA/Ionomycin-induced production of cytokine IL-8 by the HEK293 cell line. CID-2858522 was then characterized (right column). PDB was substituted for PMA to confirm suppression of an alternative PKC activator. Pathway selectivity was assessed using panels of cell lines, starting with HEK293 cells in which each of the remaining NF-κB activation pathways was stimulated, showing inhibition only of PMA/Ionomycin-induced NF-κB reporter gene activity (panel 1). […]"}, "[2]": {"test_system": "TNF-α-induced IKK-β phosphorylation", "test": "TNF-α-induced IKK-β phosphorylation in HEK293 cells", "type": "cell-based", "conditions": "4 μM"}, "TLK1": {"molecular_target": "T1, TLK1 (Homo sapiens, UniProt Q9UKI8)", "T1 construct": "proprietary tag (Ambit); purchased Ambit, Inc", "T1 sequence (Q9UKI8 whole entry)": "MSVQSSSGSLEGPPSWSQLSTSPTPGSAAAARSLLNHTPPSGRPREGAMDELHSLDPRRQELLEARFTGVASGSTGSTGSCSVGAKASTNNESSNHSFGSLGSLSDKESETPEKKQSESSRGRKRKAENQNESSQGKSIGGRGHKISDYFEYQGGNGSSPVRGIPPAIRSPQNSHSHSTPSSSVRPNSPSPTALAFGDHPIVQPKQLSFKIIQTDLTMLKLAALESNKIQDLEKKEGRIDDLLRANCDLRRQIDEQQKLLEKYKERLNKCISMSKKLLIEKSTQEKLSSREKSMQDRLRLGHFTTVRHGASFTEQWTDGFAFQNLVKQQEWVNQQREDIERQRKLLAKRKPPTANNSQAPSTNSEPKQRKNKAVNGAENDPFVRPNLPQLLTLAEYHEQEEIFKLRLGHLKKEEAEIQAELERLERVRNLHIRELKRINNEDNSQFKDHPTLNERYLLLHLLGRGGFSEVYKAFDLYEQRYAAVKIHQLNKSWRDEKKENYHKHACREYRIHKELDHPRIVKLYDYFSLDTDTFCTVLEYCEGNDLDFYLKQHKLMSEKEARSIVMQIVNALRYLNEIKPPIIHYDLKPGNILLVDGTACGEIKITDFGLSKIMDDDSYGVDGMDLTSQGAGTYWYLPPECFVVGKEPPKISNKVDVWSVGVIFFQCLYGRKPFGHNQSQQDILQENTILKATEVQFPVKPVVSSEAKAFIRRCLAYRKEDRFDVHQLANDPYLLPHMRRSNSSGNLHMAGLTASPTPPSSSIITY", "test": "KINOMEscan competition binding assay, TLK1", "text": "(§2) CID-2858522 is not a potent protein kinase inhibitor. Protein kinases play critical roles in NF-κB activation. PKCs are proximal kinases in the NF-κB pathways activated by PMA/Ionomycin and by T- and B-cell antigen receptors, while the IKKs are distal kinases operating in the terminal segments of these and other NF-κB activation pathways. We therefore tested whether CID-2858522 inhibits members of these kinase families by in vitro kinase assays. For these experiments, we tested PKC-beta and PKC-theta (the PKC family members implicated in TCR/BCR signaling), and IKK-beta (a component of the IKK complex) (FIG. 6). […] In addition to assessing these three kinases by conventional in vitro kinase assays, a kinome screen was performed using a high throughput screening method, KINOMEscan™, which is an active-site dependent competition binding assay in which human kinases of interest are fused to a proprietary tag (Ambit). The amount of kinase bound to an immobilized, active-site directed ligand is measured in the presence and absence of the test compound. […] Thus, CID-2858522 inhibits none of the protein kinases previously implicated in regulating NF-κB.\n(§3) In Vitro Kinase Assays. PKC-beta, PKC-theta and IKK-beta in vitro kinase assays were performed using the HTScan Kinase Assay Kit (Cell Signaling, Danvers, Mass.) according to manufacturer's protocols. […]"}, "[3]": {"test_system": "PDB-induced NF-κB reporter gene activity", "test": "PDBu-induced NF-κB reporter gene activity in HEK293 cells", "type": "cell-based", "conditions": "Homo sapiens", "description": "(§4) (A) Structures of two hit compounds, CID-2858522 (left) and CID-2998237 (right) are shown; (B, C) 293-NF-κB-luc cells were pretreated for 2 hrs with various concentration of either CID-2858522 (B) or CID-29982387 (C) and then stimulated with TNF (10 ng/mL) or PMA/lonomycin (10 ng/mL; 5 ng/mL) for 16 h. Luciferase activity was measured and data were expressed as a percentage relative to control treatment with DMSO only (mean±SD; n=3). (D) 293-NF-κB-luc cells were pretreated for 2 h with various concentrations of CID-2858522 or CID-2998237, then stimulated with PMA/lonomycin for 16 h. IL-8 release into the medium was measured, expressing data as a percentage relative to control cultures treated with DMSO (mean±SD; n=3). (E) 293-NF-κB-luc cells were pretreated with CID-2858522 and then stimulated with PDBu for 16 h, IL-8 production and NF-κB luciferase activity were measured as above. (F) 293-NF-κB-luc cells were pretreated for 2 h with various concentrations of CID-2858522 or a PKC inhibitor (Bisindolylmaleimide I) at 1 μM followed by PMA/Ionomycin (10 ng/mL) stimulation for 2 h, then p65-DNA-binding activity was measured in nuclear extracts (10 μg protein), expressing data as fold-increase relative to unstimulated cells (mean±SD; n=3).\nHTS. […] Plates were analyzed within 30 seconds with a Criterion Analyst™ using the luminescence method (0.1 second read/well)."}, "Raf": {"test_system": "Raf", "test": "KINOMEscan competition binding assay, Raf", "parameters": "species or system human", "conditions": "10 μM", "text": "as §2, §3"}, "[4]": {"test_system": "PDB-induced IL-8 production", "test": "PDBu-induced IL-8 production by HEK293 cells", "type": "cell-based", "conditions": "Homo sapiens", "description": "as §4\nLymphokine measurements. […]"}, "[5]": {"test_system": "LPS (TLR4 agonist) induced IL-6 production", "test": "IL-6 production by THP.1 monocytes stimulated with LPS", "type": "cell-based", "conditions": "listed as CID-2858522", "text": "as §1"}}, "note": "pIC50: −log10 of the molar value. “Also recorded” adds a separate entry of the source. Read-outs that look alike come from different tables or passages of the source.", "data": [{"smiles": "Cc1cc2nc(NCCCO)n(CC(=O)c3cc(C(C)(C)C)c(O)c(C(C)(C)C)c3)c2cc1C", "note": "[Compound 1, 2-(2-(3-Hydroxypropylamino)-5,6-dimethyl-1H-benzo[d]imidazol-1-yl)-1-(3,5-di-tert-butyl-4-hydroxyphenyl)ethanone]", "values": [{"measurement": "suppression of IL-8 production, γ-TriDAP-stimulated MCF7", "setting": "[1]", "result": "failed to inhibit; also recorded: did not suppress"}, {"measurement": "inhibition of TNF-α-induced IKK-β phosphorylation", "setting": "[2]", "result": "failed to inhibit"}, {"measurement": "inhibition at 10 µM", "setting": "TLK1", "result": 70, "unit": "%"}, {"measurement": "pIC50", "setting": "[3]; read-out: IC50, PDB-induced NF-κB reporter gene activity", "result": 7.15}, {"measurement": "pIC50", "setting": "[3]; read-out: IC50, PDBu-induced NF-κB reporter gene assay (cellular potency)", "result": "> 7.00"}, {"measurement": "inhibition of Raf", "setting": "Raf", "result": 57, "unit": "%"}, {"measurement": "pIC50", "setting": "[4]; read-out: IC50, PDB-induced IL-8 production", "result": 7.00}, {"measurement": "pIC50", "setting": "[4]; read-out: IC50, PDBu-induced IL-8 secretion (cellular potency)", "result": "> 7.00"}, {"measurement": "suppression of IL-6 production, LPS-stimulated THP.1", "setting": "[5]", "result": "failed to inhibit; also recorded: did not suppress"}]}]}
